Experimental data reported in patent US20050032904A1, “Composition and use of allylamine derivatives” (priority 2003, published 2005).

How the values were obtained:
COLO 205 cells = assay: DNA fragmentation (DNA ladder) by electrophoresis of genomic DNA; assay type: cell-based, human
Experimental: Genomic DNAs extracted from TB-treated COLO 205 were examined by gel electrophoresis. […] In FIG. 9, the part of (A) refers to potentiation of ND-induced apoptosis by TB. […] DNA fragmentation was examined at 24 h after drug treatment. In the lanes 2 and 8, cells received mock treatment as controls. The symbols of “M” (in lanes 1 and 7), refer to “DNA size marker.” (B) average tumor volume of DMSO-treated vs. drug-treated nude mice (n=5). (C) tumor weight, (D) animal body weight, and (E) tumor/body weight ratio were measured at the end of experiment. Five samples were analyzed in each group, and values represent the mean±S.E. Comparisons were subjected to ANOVA followed by Fisher's least significant difference test. Significance was accepted at p<0.05. *TB-, ND-, and TB+ND-treated group different from DMSO-treated group. TB+ND-treated group different from TB- or ND-treated group.

[1] = test system: COLO 205 tumor xenografts; assay: Treatment of COLO 205-derived xenografts in vivo; design: species or system nude mouse; details: TB 50 mg/kg, ND 5 mg/kg, intraperitoneal, 3 times per week for 6 weeks
Experimental: Genomic DNAs extracted from TB-treated COLO 205 were examined by gel electrophoresis. […] DNA fragmentation was examined at 24 h after drug treatment. In the lanes 2 and 8, cells received mock treatment as controls. […] Comparisons were subjected to ANOVA followed by Fisher's least significant difference test. […] Since, retardation of the cell cycle and/or activation of the cellular apoptotic response are two major mechanisms preventing tumor growth, we examined the TB effect on the cell cycle and apoptosis occurrence of the solid tumor derived from the implanted COLO 205. The COLO-205 cells (5×10^6) in 0.1 ml RPMI 1640 were injected subcutaneously between the scapulae of each nude mouse (purchased from National Science Council animal center, Taipei). […]

[2] = test system: COLO 205 tumor xenografts; details: previous research; cited from earlier work
malignant cells = details: through abnormal microtubule polymerization; previous study; cited from earlier work
[3] = test system: hepatoma and colon cancer cells; details: previous studies of the inventors; cited from earlier work

COC(=O)Nc1nc2ccc(C(=O)c3cccs3)cc2[nH]1 [ND, nocodazole]
ND concentration at which DNA ladder patterns characteristic of apoptosis are displayed (COLO 205 cells; ND alone, 24 h after drug treatment): ≥ 50 nM | ND concentration inducing the DNA ladder pattern (COLO 205 cells; in the presence of 10 μM TB, 24 h): 1 nM | tumor volume vs. vehicle (DMSO plus peanut oil) [1]: reduction in tumor volume

COC1=CC(=O)C[C@@H](C)[C@]12Oc1c(Cl)c(OC)cc(OC)c1C2=O [griseofulvin]
effect on anti-cancer activities of nocodazole in vivo [2]: potentiates the anti-cancer activities of nocodazole | apoptosis and cell cycle arrest (malignant cells): induced apoptosis and cell cycle arrest at the G2/M phase

CC(=O)N1CCN(c2ccc(OCC3COC(Cn4ccnc4)(c4ccc(Cl)cc4Cl)O3)cc2)CC1 (stereo not drawn) [ketoconazole]
cell cycle arrest and apoptosis [3]: induced cell cycle arrest at the G0/G1 phase of the cell cycle and the occurrence of apoptosis
